Results: PubChem BioAssay (NCI)
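Protocol summary: plate cells (96-well), add compound at 5 concentrations, incubate 48 h, interpolate endpoints linearly. Here, GI50 denotes the concentration required for 50% inhibition of growth. TGI marks complete inhibition of growth.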

Assays:
Test in all cases: NCI anticancer screen, dose series, 48 h
[1] = test system: 786-0 renal
[2] = test system: A498 renal
[3] = test system: A549 NSCLC
[4] = test system: ACHN renal
[5] = test system: BT-549 breast
[6] = test system: CAKI-1 renal
[7] = test system: CCRF-CEM leukemia
[8] = test system: COLO 205 colon
[9] = test system: DU-145 prostate
[10] = test system: EKVX NSCLC
[11] = test system: HCC-2998 colon
[12] = test system: HCT-116 colon
[13] = test system: HCT-15 colon
[14] = test system: HL-60(TB) leukemia
[15] = test system: HOP-62 NSCLC
[16] = test system: HOP-92 NSCLC
[17] = test system: HS 578T breast
[18] = test system: HT29 colon
[19] = test system: IGROV1 ovarian
[20] = test system: K-562 leukemia
[21] = test system: KM12 colon
[22] = test system: LOX IMVI melanoma
[23] = test system: M14 melanoma
[24] = test system: MALME-3M melanoma
[25] = test system: MCF7 breast
[26] = test system: MDA-MB-231 breast
[27] = test system: MDA-MB-435
[28] = test system: MOLT-4 leukemia
[29] = test system: NCI-H226 lung
[30] = test system: NCI-H23 lung
[31] = test system: NCI-H460 lung
[32] = test system: NCI-H522 lung
[33] = test system: NCI/ADR-RES ovarian
[34] = test system: OVCAR-3 ovarian
[35] = test system: OVCAR-4 ovarian
[36] = test system: OVCAR-5 ovarian
[37] = test system: OVCAR-8 ovarian
[38] = test system: PC-3 prostate
[39] = test system: RPMI-8226 leukemia
[40] = test system: RXF 393 renal
[41] = test system: SF-268 CNS
[42] = test system: SF-295 CNS
[43] = test system: SF-539 CNS
[44] = test system: SK-MEL-2 melanoma
[45] = test system: SK-MEL-28 melanoma
[46] = test system: SK-MEL-5 melanoma
[47] = test system: SK-OV-3 ovarian
[48] = test system: SN12C renal
[49] = test system: SNB-19 CNS
[50] = test system: SNB-75 CNS
[51] = test system: SR leukemia
[52] = test system: SW-620 colon
[53] = test system: T-47D breast
[54] = test system: TK-10 renal
[55] = test system: U251 CNS
[56] = test system: UACC-257 melanoma
[57] = test system: UACC-62 melanoma
[58] = test system: UO-31 renal

CCOc1nc(-c2ccccc2)cc2c(O)c(C(=O)N/N=C/c3ccc(O)cc3O)[nH]c(=O)c12 was tested, and the GI50 [1] was 2.31 µM, the TGI [1] was 8.34 µM and the GI50 [2] was 3.64 µM. For the same molecule, the TGI [2] was 28.5 µM, the GI50 [3] was 6.5 µM and the TGI [3] was over 100 µM. It also gave a GI50 [4] of 1.79 µM, a TGI [4] of over 35.5 µM and a GI50 [5] of 1.65 µM. For the same molecule, the TGI [5] was over 26.3 µM, the GI50 [6] was 1.91 µM and the TGI [6] was over 29.5 µM. The GI50 [7] was 0.357 µM, the TGI [7] was over 23.2 µM and the GI50 [8] was 0.751 µM. For the same molecule, the TGI [8] was 12.6 µM, the GI50 [9] was 2.61 µM and the TGI [9] was 25.5 µM. It also gave a GI50 [10] of 2.5 µM, a TGI [10] of over 100 µM and a GI50 [11] of 1.95 µM. For the same molecule, the TGI [11] was over 82.3 µM, the GI50 [12] was 0.66 µM and the TGI [12] was 17.5 µM. It also gave a GI50 [13] of 1.5 µM, a TGI [13] of over 100 µM and a GI50 [14] of 1.44 µM. For the same molecule, the TGI [14] was 13.4 µM, the GI50 [15] was 1.65 µM and the TGI [15] was over 52.1 µM. The GI50 [16] was 4.42 µM, the TGI [16] was over 100 µM and the GI50 [17] was 14 µM. The TGI [17] was over 100 µM, the GI50 [18] was 5.41 µM and the TGI [18] was over 100 µM. For the same molecule, the GI50 [19] was 4.08 µM, the TGI [19] was 59.5 µM and the GI50 [20] was 1.62 µM. The TGI [20] was over 100 µM, the GI50 [21] was 5.73 µM and the TGI [21] was over 100 µM. For the same molecule, the GI50 [22] was 0.686 µM, the TGI [22] was 9.11 µM and the GI50 [23] was 1.45 µM. It also gave a TGI [23] of 7.16 µM, a GI50 [24] of 2.86 µM and a TGI [24] of over 40.5 µM. The GI50 [25] was 2.17 µM, the TGI [25] was over 32 µM and the GI50 [26] was 4.12 µM. For the same molecule, the TGI [26] was over 93 µM, the GI50 [27] was 4.05 µM and the TGI [27] was over 100 µM. For the same molecule, the GI50 [28] was 0.22 µM, the TGI [28] was over 94.4 µM and the GI50 [29] was 1.49 µM. It also gave a TGI [29] of 8.15 µM, a GI50 [30] of 4.66 µM and a TGI [30] of over 82.8 µM. For the same molecule, the GI50 [31] was 3.6 µM, the TGI [31] was 27.6 µM and the GI50 [32] was 1.29 µM. The TGI [32] was 23.5 µM, the GI50 [33] was 1.77 µM and the TGI [33] was over 31.3 µM. It also gave a GI50 [34] of 0.364 µM, a TGI [34] of 10.6 µM and a GI50 [35] of 0.407 µM. For the same molecule, the TGI [35] was over 40.8 µM, the GI50 [36] was 7.06 µM and the TGI [36] was over 100 µM. The GI50 [37] was 0.965 µM, the TGI [37] was over 37.1 µM and the GI50 [38] was 5.55 µM. For the same molecule, the TGI [38] was over 100 µM, the GI50 [39] was 5.62 µM and the TGI [39] was 43 µM. The GI50 [40] was 1.53 µM, the TGI [40] was 11.9 µM and the GI50 [41] was 0.766 µM. For the same molecule, the TGI [41] was 16.4 µM, the GI50 [42] was 4.88 µM and the TGI [42] was over 100 µM. For the same molecule, the GI50 [43] was 0.904 µM, the TGI [43] was 6.06 µM and the GI50 [44] was 5.1 µM. The TGI [44] was 88.8 µM, the GI50 [45] was 2.32 µM and the TGI [45] was over 100 µM. The GI50 [46] was 1.48 µM, the TGI [46] was over 57.6 µM and the GI50 [47] was 1.26 µM. It also gave a TGI [47] of over 24.7 µM, a GI50 [48] of 2.43 µM and a TGI [48] of over 39 µM. It also gave a GI50 [49] of 1.42 µM, a TGI [49] of over 46.8 µM and a GI50 [50] of 3.16 µM. The TGI [50] was over 42 µM, the TGI [51] was over 27.5 µM and the GI50 [52] was 1.88 µM. The TGI [52] was over 100 µM, the GI50 [53] was 1.64 µM and the TGI [53] was 50.1 µM. It also gave a GI50 [54] of 6.47 µM, a TGI [54] of over 100 µM and a GI50 [55] of 0.789 µM. The TGI [55] was over 100 µM, the GI50 [56] was 2.93 µM and the TGI [56] was 17.3 µM. It also gave a GI50 [57] of 1.17 µM, a GI50 [58] of 1.52 µM and a TGI [58] of 16 µM.
